In patent publication US10633388B2, “Pyrazolopyrimidone derivatives and methods of use thereof” (Shanghai Hengrui Pharmaceutical Co., Ltd., priority 2013, dated 2020):

How the values were obtained:
[1] = women with endometriosis, 150 or 250 mg qd, vs leuprorelin depot 3.75 mg sc monthly or placebo; cited from earlier work
monkey GnRHr = monkey GnRHr (Macaca fascicularis, UniProt A0A2K5WH82); assay: Monkey GnRHr inhibitory activity assay, Fluo-4 calcium signal in stably transfected CHO cells; assay type: cell-based; settings: GnRH polypeptide stimulation, read-out: IC50, inhibition of the activity of Monkey GnRHr
monkey GnRHr, sequence (A0A2K5WH82 1-328): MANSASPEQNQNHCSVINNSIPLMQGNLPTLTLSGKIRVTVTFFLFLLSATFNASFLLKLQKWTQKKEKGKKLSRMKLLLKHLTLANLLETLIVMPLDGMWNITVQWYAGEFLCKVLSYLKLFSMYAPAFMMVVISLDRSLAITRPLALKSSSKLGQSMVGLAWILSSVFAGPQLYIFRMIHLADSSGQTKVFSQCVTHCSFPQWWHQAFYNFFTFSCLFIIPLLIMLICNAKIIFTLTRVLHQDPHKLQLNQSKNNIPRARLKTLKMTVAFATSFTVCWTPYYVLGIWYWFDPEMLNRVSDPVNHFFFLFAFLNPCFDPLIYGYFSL
Description: This assay was used to determine the inhibition effect of the present compounds on the activity of monkey GnRHr protein expressed by monkey GnRHr/CHO stably transfected cell lines.
A mammalian expression vector containing the monkey GnRHr gene was transferred into CHO cells by adding Lipofectamine®LTX reagent containing Plus™. Antibiotics were added the next day for screening to pick out the monoclonal cell lines.
The monkey GnRHr/CHO stably transfected cell lines were inoculated in 96-well plates with an inoculation density of 25,000 cells/well. The culture medium was removed the next day, and loading buffer containing Fluo-4 dye was added to the plate ([…]) and incubated for 30 minutes at 37° C. The plate was moved to room temperature and equilibrated for 10 minutes. Each compound was diluted with DMSO to seven concentration gradients of 100 μM, 10 μM, 1 μM, 0.1 μM, 0.01 μM, 0.001 μM, 0.0001 μM. […] After automated addition of 50 μL of GnRH polypeptide stimulant solution, the value was immediately detected at 494/516 […] by a microplate reader (flexstation 3). IC50 values of the compounds were calculated by software from different fluorescence signals at various corresponding concentrations.
The inhibitory activity of the present compounds on monkey GnRHr was determined by the above assay, and IC50 values are shown in Table 1.

ectopic endometrium = assay: In vivo pharmacodynamics test in rabbit endometriosis model; parameters: species or system New Zealand rabbits
Description: Fifteen (15) healthy New Zealand rabbits (female) were evenly designated into 3 groups.
Rabbits were adaptive fed and quarantined for seven days, and subcutaneously injected with 30 g/kg of estradiol benzoate once daily for two days before surgery. When the model was established, rabbits were anesthetized with 3% sodium pentobarbital, and laparotomized sterilely. Then, one side of the uterus was separated and ligated with the uterine mesorectum vessel. Then, a section of the uterus was cut off and put into a warm saline dish, and then dissected longitudinally and the myometrium and endometrium were separated. A section of endometrium (about 0.5 cm by 0.5 cm) was seamed to the abdominal wall rich in blood vessels with the intimal surface facing toward the abdominal cavity. Three weeks after endometrium planting, the rabbits were laparotomized to check graft intimal size. […] Each group was administered by oral gavage once a day in a volume of 5 ml/kg, continuously for 28 days after successful modeling. Ultimately, the rabbit was weighed and the volume of ectopic endometrium was measured to evaluate the effect of the present compound on the endometrial activity.

[2] = Rabbit pharmacokinetics assay; assay type: in vivo, New Zealand rabbits; settings: rabbits
Description: Rabbits were used as test animals. The plasma concentrations at various times were determined by LC/MS/MS after intragastric administration of the compound of Example 11, and intravenous administration of the compound of Example 11 to rabbits. The pharmacokinetic behavior of the present compound in rabbits was studied, and the pharmacokinetic features were evaluated.
Six (6) healthy New Zealand Rabbits (female) were evenly designated into 2 groups. The animals were purchased from Jie Sijie Corp. Ltd.
An appropriate amount of sample was weighed, and added with 0.5% CMC-Na to form […] suspension upon ultrasonic treatment.
Appropriate amounts of drugs were weighed, and dissolved with 1 ml DMSO and 1 ml of Tween 80. Saline solution was added to the final volume. […]
0.2 ml of blood was sampled before and 5 minutes, 0.25, 0.5, 1, 2, 4, 8, 11, 24 hours after intravenous administration, collected in a heparinized test tube, and centrifuged at 3500 rpm for 10 minutes to separate the plasma, which was stored at −20° C. […] The content of the test compound in the plasma of rabbits after administration of the compound by oral gavage and intravenous injection was determined by LC/MS/MS.

[3] = Rat pharmacokinetics assay; assay type: in vivo; settings: both sexes, Sprague-Dawley, plasma, SD rats, oral 10 mg/kg vs i.v. 5 mg/kg, read-out: Oral Bioavailability F
Description: Sprague-Dawley (SD) rats were used as test animals. The plasma concentrations at various times were determined by LC/MS/MS after intragastric administration of compounds of Example 2, Example 3, Example 5, Example 9, Example 10, Example 11, and Example 13, and intravenous administration of the compound of Example 11 to the rats. The pharmacokinetic behavior of the present compounds in rats was studied, and the pharmacokinetic features were evaluated.
Thirty-two (32) healthy adult SD rats (half female and half male) were evenly designated into 8 groups (4 for each group). The animals were purchased from Shanghai Super B&K Laboratory Animal Corp. Ltd (laboratory animal production Certificate No. SCXK (HU)2008-0016).
An appropriate amount of sample was weighed, and added with 0.5% CMC-Na to form a 1 mg/ml suspension upon ultrasonic treatment.
Appropriate amounts of drugs were weighed, and dissolved with 0.5 ml DMSO and 0.5 ml of Tween 80. Saline solution was added to the final volume. […]
The content of the test compound in the plasma of rats after administration of the compound by oral gavage was determined by LC/MS/MS.

[4] = Beagle pharmacokinetics assay; assay type: in vivo; settings: beagles
Description: Beagles were used as test animals. The plasma concentrations at various times were determined by LC/MS/MS after intragastric administration of the compound of Example 11, and intravenous administration of the compound of Example 11 to beagles. The pharmacokinetic behavior of the present compound in beagles was studied, and the pharmacokinetic features were evaluated.
Eight (8) healthy beagles (half female and half male) were evenly designated into 2 groups. The animals were purchased from SuzhouXishan Zhongke Laboratory Animal Corp. Ltd.
An appropriate amount of sample was weighed, and added with 0.5% CMC-Na to form a 1.0 mg/ml suspension upon ultrasonic treatment;
Appropriate amounts of drugs were weighed, and dissolved with 5 ml DMSO and 5 ml of Tween 80. Saline solution was added to the final volume. […]
1.0 ml of blood was sampled from the foreleg vein before, and 0.25, 0.5, 1, 2, 4, 6, 8, 12, and 24 hours after oral administration, collected in a heparinized test tube, and centrifuged at 3500 rpm for 10 minutes to separate the plasma, which was stored at −20° C. […] The content of the test compound in the plasma of beagles after administration of the compound by oral gavage and intravenous injection was determined by LC/MS/MS.

[5] = Seven-day toxicokinetic evaluation in rats; assay type: in vivo, SD rats
Description: SD rats were used as test animals. The plasma concentration at various times was determined by LC/MS/MS after administration of the compound of Example 11 (SHR147280) by oral gavage for 7 days. The compound toxicity in rodents was preliminarily assessed according to the potential toxicity reaction and severity level of the body.
Twenty-four (24) healthy adult SD rats (half female and half male) were evenly designated into 4 groups (6 for each group). The animals were purchased from Shanghai SLAC Laboratory Animal Corp. Ltd (laboratory animal production Certificate No. SCXK (HU) 2012-0002).
An appropriate amount of sample was accurately weighed, and added with some 0.5% CMC-Na to form an uniform suspension upon ultrasonicator grinding treatment, and then diluted to the final volume. The test sample solutions on day 1 and day 7 were kept for the determination of administration concentration of toxicokinetics.
Repeat oral doses were 80, 240, and 720 mg/kg, and administration concentrations were 8, 24, and 72 mg/ml respectively. The dosing volume was 10 ml/kg once daily for 7 days.
The blood was sampled on day 1 and day 7 after administration with sampling time before, and 1, 2, 4, 8 and 24 hours after oral administration on day 1, as well as before, and 1, 2, 4, 8, 24 and 48 hours after oral administration on day 7. The blood sample was collected in a heparinized test tube, and centrifuged to separate the plasma, which was stored at −20° C. The content of the test compound in the plasma of rats after administration of the compound by oral gavage was determined by LC/MS/MS.

In the case of COc1cccc(-c2c(C)n(Cc3c(F)cccc3C(F)(F)F)c(=O)n(C[C@H](NCCCC(=O)O)c3ccccc3)c2=O)c1F [elagolix, Elagolix], the serum estrogen level [1] is given as “lower than that of the leuprorelin treatment group and placebo group”.

Work on CNC(=O)Nc1ccc(-n2nc3c(c2CN(C)C)c(=O)n(-c2ccc(OC)nn2)c(=O)n3Cc2c(F)cccc2F)cc1 [Example 9, 1-(4-(7-(2,6-difluorobenzyl)-3-((dimethylamino)methyl)-5-(6-methoxypyridazin-3-yl)-4,6-dioxo-4,5,6,7-tetrahydro-2H-pyrazolo[3,4-d]pyrimidin-2-yl)phenyl)-3-methylurea] yielded an IC50 (monkey GnRHr) of 23.2 nM.

For CONC(=O)Nc1ccc(-n2nc3c(c2CN(C)C)c(=O)n(-c2ccc(OC)nn2)c(=O)n3Cc2c(F)cccc2F)cc1 [Example 11, 1-(4-(7-(2,6-difluorobenzyl)-3-((dimethylamino)methyl)-5-(6-methoxypyridazin-3-yl)-4,6-dioxo-4,5,6,7-tetrahydro-2H-pyrazolo[3,4-d]pyrimidin-2-yl)phenyl)-3-methoxyurea], the “inhibition for the ectopic endometrial volume” value (ectopic endometrium; 10 mg/kg oral once daily for 4 weeks) was “not obvious”, the “growth of ectopic endometrium” value (ectopic endometrium; 30 mg/kg oral once daily for 4 weeks, vs 0.5% CMC-Na control) was “significantly inhibited” and the bioavailability ([2]; female, New Zealand, rabbit, plasma, oral 30 mg/kg vs intravenous injection 5 mg/kg, read-out: Oral Bioavailability F) was 92.9%. The “Apparent volume of distribution Vz/F” value ([2]; oral 30 mg/kg) was 10.719 ± 3.862 L/kg, the bioavailability [3] was 76.6% and the “Clearance rate CL/F” value ([4]; oral 5 mg/kg) was 14.7 ± 4.2 mL/min/kg. The bioavailability ([4]; both sexes, beagle, dog, plasma, oral 5 mg/kg vs i.v. 2 mg/kg, read-out: Oral Bioavailability F) was 104%, the Death ([5]; both, SD, rat, in vivo, po, 720 mg/kg, 7 days) was “died on day 7 before dosing” and the lethal dose ([5]; both, SD, rat, in vivo, po, 7 days) was 720 mg/kg. The “MRT0-∞” value ([5]; female, SD, rat, in vivo, po, 240 mg/kg) was 9.63 h, the “safety window: NOAEL dose ratio (toxicological pharmacokinetic dose/pharmacodynamic dose)” value ([5]; rat 240 mg/kg / rabbit 30 mg/kg, preliminary evaluation) was 240/30 = 8 and the urine indexes ([5]; rat, in vivo) was “no regularly abnormal changes”. For the same compound, the “Blood biochemistry: ALB (albumin) and ALP (alkaline phosphatase)” value ([5]; rat, in vivo, 720 mg/kg) was “significantly decreased”, the “Blood biochemistry: ALT (alanine aminotransferase)” value ([5]; rat, in vivo, 720 mg/kg) was “no statistical differences” and the “Blood biochemistry: BUN, CHOL, CREA, TBIL, TP and AST” value ([5]; rat, in vivo, 720 mg/kg) was “significantly increased”. The “Hematology: WBC, Neut, Lymph, EO and RET” value ([5]; rat, in vivo, 720 mg/kg) was “significantly decreased”, the “Relative organ coefficient of the thymus and spleen” value ([5]; rat, in vivo, 720 mg/kg) was “significantly reduced” and the “absolute wet weight of the adrenal gland” value ([5]; rat, in vivo, 720 mg/kg) was “significantly increased”. For the same compound, the “absolute wet weight of the thymus, heart, lung and spleen” value ([5]; rat, in vivo, 720 mg/kg) was “significantly decreased”, the food intake ([5]; rat, in vivo, 720 mg/kg) was “significantly reduced” and the “relative organ coefficient of the brain, liver, lung, kidney, and adrenal gland” value ([5]; rat, in vivo, 720 mg/kg) was “significantly increased”. The “potential toxic target organs” value ([5]; rat, in vivo, po) was “marrow hematopoietic system, thymus, heart, liver, lung, spleen, adrenal gland, ovary, and digestion system” and the IC50 (monkey GnRHr) was 78.6 nM.
